Test results reported in PMC10607377, “The PKG Inhibitor CN238 Affords Functional Protection of Photoreceptors and Ganglion Cells against Retinal Degeneration” (International Journal of Molecular Sciences, 2023).

Columns and labels:
PKG2 = biological target: T1, PKG2 (Homo sapiens, UniProt Q13237); test: coupled spectrophotometric kinase activation assay; type: biochemical
T1 construct: gene PRKG2; FLAG-Strep-Strep-tagged human PKG2 (1–762) WT
T1 sequence (Q13237 1-762): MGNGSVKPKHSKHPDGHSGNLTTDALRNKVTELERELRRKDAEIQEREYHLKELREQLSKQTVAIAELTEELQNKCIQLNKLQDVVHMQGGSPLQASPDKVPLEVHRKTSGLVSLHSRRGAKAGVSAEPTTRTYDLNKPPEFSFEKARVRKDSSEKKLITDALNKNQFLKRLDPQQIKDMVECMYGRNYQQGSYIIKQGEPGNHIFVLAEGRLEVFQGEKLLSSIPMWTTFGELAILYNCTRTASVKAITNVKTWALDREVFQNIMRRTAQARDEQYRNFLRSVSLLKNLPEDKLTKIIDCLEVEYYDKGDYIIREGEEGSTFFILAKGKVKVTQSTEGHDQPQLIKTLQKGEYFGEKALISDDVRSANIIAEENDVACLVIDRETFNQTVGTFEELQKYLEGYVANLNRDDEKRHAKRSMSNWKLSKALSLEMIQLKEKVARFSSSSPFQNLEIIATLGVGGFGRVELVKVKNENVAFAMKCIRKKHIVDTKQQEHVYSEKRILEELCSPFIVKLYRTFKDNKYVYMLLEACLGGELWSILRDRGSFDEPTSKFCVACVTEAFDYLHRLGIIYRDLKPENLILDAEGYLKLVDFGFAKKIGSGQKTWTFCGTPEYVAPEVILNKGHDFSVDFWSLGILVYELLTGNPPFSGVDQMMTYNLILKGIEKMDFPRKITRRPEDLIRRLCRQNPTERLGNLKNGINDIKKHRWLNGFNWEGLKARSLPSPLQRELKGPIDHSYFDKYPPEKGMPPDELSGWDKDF

cone CNG channel (CNGA3) = biological target: T2, cone CNG channel (CNGA3) (Homo sapiens, UniProt Q16281+Q9NQW8); test: inside-out patch-clamp, concentration-activation; type: cell-based
T2 construct: CNGA3:CNGB3 expressed in Xenopus oocytes; with CNGB3
T2 sequence (Q16281 1-694): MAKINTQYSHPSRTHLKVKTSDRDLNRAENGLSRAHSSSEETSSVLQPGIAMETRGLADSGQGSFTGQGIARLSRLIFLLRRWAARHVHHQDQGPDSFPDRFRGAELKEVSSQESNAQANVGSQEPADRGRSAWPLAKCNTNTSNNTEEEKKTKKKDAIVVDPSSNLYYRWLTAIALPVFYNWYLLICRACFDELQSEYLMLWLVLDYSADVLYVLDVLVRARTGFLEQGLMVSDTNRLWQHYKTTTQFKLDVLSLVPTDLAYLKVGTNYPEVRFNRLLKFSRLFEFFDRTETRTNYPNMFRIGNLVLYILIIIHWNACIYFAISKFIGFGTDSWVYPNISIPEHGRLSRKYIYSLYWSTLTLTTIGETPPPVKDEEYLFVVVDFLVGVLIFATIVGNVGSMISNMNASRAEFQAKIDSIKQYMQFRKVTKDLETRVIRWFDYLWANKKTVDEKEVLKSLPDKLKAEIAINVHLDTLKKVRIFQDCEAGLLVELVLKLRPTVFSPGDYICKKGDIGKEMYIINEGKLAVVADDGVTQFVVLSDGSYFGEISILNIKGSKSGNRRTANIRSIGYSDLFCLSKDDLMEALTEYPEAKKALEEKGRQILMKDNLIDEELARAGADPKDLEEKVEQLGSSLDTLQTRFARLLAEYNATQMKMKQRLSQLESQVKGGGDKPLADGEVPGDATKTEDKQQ
T2 sequence (Q9NQW8 1-809): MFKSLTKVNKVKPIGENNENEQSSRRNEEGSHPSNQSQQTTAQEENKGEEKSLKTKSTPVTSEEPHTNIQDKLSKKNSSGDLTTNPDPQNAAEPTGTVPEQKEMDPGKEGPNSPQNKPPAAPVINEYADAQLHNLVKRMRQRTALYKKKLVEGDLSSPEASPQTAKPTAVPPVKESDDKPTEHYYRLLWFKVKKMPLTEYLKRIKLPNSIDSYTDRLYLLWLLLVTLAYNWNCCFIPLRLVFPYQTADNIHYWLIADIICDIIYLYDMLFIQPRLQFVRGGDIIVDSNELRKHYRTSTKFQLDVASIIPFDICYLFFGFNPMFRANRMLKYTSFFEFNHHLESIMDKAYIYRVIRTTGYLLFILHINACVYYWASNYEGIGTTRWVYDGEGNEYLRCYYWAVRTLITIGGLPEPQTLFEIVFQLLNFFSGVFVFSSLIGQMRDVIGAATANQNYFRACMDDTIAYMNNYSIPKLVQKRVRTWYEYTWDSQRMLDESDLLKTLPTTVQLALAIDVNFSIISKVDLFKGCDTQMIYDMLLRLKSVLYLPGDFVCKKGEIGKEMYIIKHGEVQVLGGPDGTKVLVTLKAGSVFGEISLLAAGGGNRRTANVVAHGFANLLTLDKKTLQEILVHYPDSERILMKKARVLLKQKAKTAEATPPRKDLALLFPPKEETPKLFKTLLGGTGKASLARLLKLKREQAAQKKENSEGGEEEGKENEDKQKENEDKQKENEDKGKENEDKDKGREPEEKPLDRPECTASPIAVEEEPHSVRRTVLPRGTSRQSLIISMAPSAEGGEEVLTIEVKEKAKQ

PKG1β = biological target: T3, PKG1β (Homo sapiens, UniProt Q13976)
T3 construct: gene PRKG1
T3 sequence (Q13976 4-686 isoform Q13976-2): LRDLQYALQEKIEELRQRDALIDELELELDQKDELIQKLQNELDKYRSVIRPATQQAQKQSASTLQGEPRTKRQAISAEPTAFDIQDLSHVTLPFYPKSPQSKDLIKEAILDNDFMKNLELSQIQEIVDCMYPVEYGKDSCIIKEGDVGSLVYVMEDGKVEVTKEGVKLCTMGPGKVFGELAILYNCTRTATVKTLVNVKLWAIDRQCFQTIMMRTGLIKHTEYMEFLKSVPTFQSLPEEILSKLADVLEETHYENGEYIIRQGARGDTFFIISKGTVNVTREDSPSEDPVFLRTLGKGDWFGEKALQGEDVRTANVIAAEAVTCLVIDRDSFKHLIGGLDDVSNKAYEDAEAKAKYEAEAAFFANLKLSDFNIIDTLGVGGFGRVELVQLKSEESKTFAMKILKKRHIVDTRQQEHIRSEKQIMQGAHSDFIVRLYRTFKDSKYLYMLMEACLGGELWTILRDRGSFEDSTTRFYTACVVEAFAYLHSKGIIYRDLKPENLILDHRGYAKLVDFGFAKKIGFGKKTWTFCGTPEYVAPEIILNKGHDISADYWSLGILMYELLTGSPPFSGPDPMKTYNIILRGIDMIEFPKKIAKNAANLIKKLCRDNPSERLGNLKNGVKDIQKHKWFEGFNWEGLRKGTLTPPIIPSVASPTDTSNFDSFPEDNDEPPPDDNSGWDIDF

Compound: Nc1nc2c(ncn2[C@@H]2O[C@@H]3COP(=O)(O)O[C@H]3[C@H]2O)c(=O)[nH]1 [cGMP]
- coupled spectrophotometric kinase activation assay (PKG2): Activation with cGMP was determined for all PKG isoforms
- EC50 (cone CNG channel (CNGA3)): 10.7 µM
- coupled spectrophotometric kinase activation assay (PKG1β): Activation with cGMP was determined for all PKG isoforms
